US7544512B2, “Method of producing insulinotropic GLP-1 (7-36) polypeptide and/or GLP-1 analogs” (Shanhai Hua Yi Bio-Tech Lab, priority 2001, dated 2009)

Experiments:
Type in all cases: in vivo
insulin secretion = assay: Effect on insulin secretion in mice (serum insulin, radioimmunoassay); conditions: healthy C57/BL/6J mice, 2 μg injected into abdominal cavity, blood at 0, 5, 15, 30, 60 min, FIG. 9
Method: Healthy C57/BL/6J mice were purchased from the Shanghai Laboratory Animal Center of Chinese Academy of Sciences. The mice were divided into three groups with 6 mice in each group. The placebo group of mice received 200 μl of saline injected into their abdominal cavity, while the testing group received 2 μg of GLP-1 (7-36) and the positive control group received 2 μg of GLP-1 (7-36)NH2 (BACHEM). The moment when the animals received the injection was set as time zero. 50 μl of blood were drawn from the veins at angulus oculi with a graduated capillary which had been rinsed with heparin and then dried. The blood samples were subsequently drawn at 5, 15, 30 and 60 minutes. The blood samples were immediately mixed with 50 μl of saline in a micro-centrifuge tube. The mixture was centrifuged at 3000 rpm to remove erythrocytes. The serum was used to measure insulin concentration.
The radioimmunoassay kit (Shanghai Institute of Biological Products, Chinese Ministry of Health) for insulin was used to measure the effect of GLP-1 (7-36) on insulin secretion. […] This observation indicates the administration of either GLP-1 (7-36) or GLP-1 (7-36)NH2 enhances the secretion of insulin in mice.

blood glucose [1] = assay: Comparison of reducing blood glucose effect in Kun Ming mice; conditions: fasted 4 hours, glucose 2 g/kg intraperitoneally, 50 ng/Kg peptide, 30 minutes; for Rate (reduction of blood glucose): versus control
Method: Kun Ming mice (40 in total, male, 23 g body weight/mouse) were divided into 4 groups. After fasting for 4 hours, each mouse was injected with glucose (2 g/kg body weight) intraperitoneally. Then mice in the testing group were rejected with 50 ng/Kg of GLP-1 (7-36), GLP-1 (7-36)NH2 (BACHEM) and GLP-1 (7-37)COOH (BACHEM) respectively, while mice in the control group were rejected with 0.9% NaCl saline. Blood sample was collected at the zero time and 30 minutes later for the analysis.

blood glucose [2] = assay: Effect on blood glucose level in glucose-loaded C57/BL/6J mice; conditions: C57/BL/6J mice fasted overnight, 200 μl of 40% glucose plus 2 μg peptide into abdominal cavity, 0, 30, 60, 120 min, FIG. 11
Method: Healthy C57/BL/6J mice were purchased from Shanghai Laboratory Animal Center of Chinese Academy of Sciences. The mice were divided into four groups with 6 mice in each group. Mice fasted overnight were injected by abdominal cavity. The placebo group were injected with 200 μl of 40% glucose solution, the testing group were injected with 200 μl of 40% glucose solution plus 2 μg of GLP-1 (7-36), the positive control group(I) were injected with 200 μl of 40% glucose solution plus 2 μg of GLP-1 (7-36)NH2 (Sigma), and the positive control group(II) were injected with 200 μl of 40% glucose solution plus 2 μg of GLP-1 (7-37) (Sigma). The moment when the animals received the injection was set as time zero. After the injection, 20 μl of blood sample were immediately drawn from optic sinus of each mouse with a heparin-treated capillary. The blood samples were immediately mixed with 300 μl of saline in a micro-centrifuge tube. The mixture was centrifuged at 3000 rpm to remove erythrocytes. The serum was used to measure serum glucose concentration. This procedure was repeated at the 30th, 60th and 120th minutes.
The serum blood glucose concentration was measured by a commercial kit (Shanghai Institute of Biological Products, Chinese Ministry of Health).

C-peptide secretion = assay: Effect on C-peptide secretion in mice (serum C-peptide, radioimmunoassay); conditions: C57/BL/6J mice, 10 μg injected into abdominal cavity, FIG. 10
Method: As described in Example 14, C57/BL/6J mice were divided into two groups with the placebo group receiving 200 μl of saline injected into abdominal cavity and the testing group receiving 10 μg of GLP-1 (7-36). A radioimmunoassay kit (Shanghai Institute of Biological Products, Chinese Ministry of Health) for C-peptide was used to measure the effect of GLP-1 (7-36) on C-peptide secretion.

Substance | serum insulin concentration (insulin secretion) | Blood Glucose (blood glucose [1]) [mmol/L] | Rate (reduction of blood glucose) (blood glucose [1]) [%] | serum blood glucose concentration (blood glucose [2]) | serum C-peptide concentration (C-peptide secretion)
His-Ala-Glu-Gly-Thr-Phe-Thr-Ser-Asp-Val-Ser-Ser-Tyr-Leu-Glu-Gly-Gln-Ala-Ala-Lys-Glu-Phe-Ile-Ala-Trp-Leu-Val-Lys-Gly-Arg−OH (HAEGTFTSDVSSYLEGQAAKEFIAWLVKGR; homo sapiens) [GLP-1 (7-36)] | significant increase | 6.51 | 50.4 | no obvious rise from the normal level | significant increase
GLP-1 (7-36)NH2: natural GLP-1 form of 30 amino acid residues with C-terminal amidated; positive control from BACHEM or Sigma | significant increase | 8.69 | 36.8 | no obvious rise from the normal level | 
GLP-1 (7-37): natural GLP-1 form of 31 amino acid residues; positive control from Sigma or BACHEM (HAEGTFTSDVSSYLEGQAAKEFIAWLVKGRG; homo sapiens) |  | 6.77 | 50.7 | no obvious rise from the normal level | 
